In ChEMBL document CHEMBL5385876, “Discovery of unglycosylated indolocarbazoles as ROCK2 isoform-selective inhibitors for the treatment of breast cancer metastasis” (Eur J Med Chem, 2023):
Calls of active or inactive are those of the source. The rule behind the calls is not given here.

Key:
[1] = target: Serine/threonine-protein kinase Chk1 (Homo sapiens) (UniProt O14757); assay: Inhibition of human recombinant CHK1 at 125 nM
[2] = target: Signal transducer and activator of transcription 3 (Homo sapiens) (UniProt P40763); assay: Inhibition of STAT3 transcriptional activity in human MDA-MB-231 cells assessed as reduction in MMP2 mRNA level at 5 uM incubated for 24 hrs by qRT-PCR analysis; assay type: cell-based
MDA-MB-231 [3] = assay: Inhibition of cell invasion in human MDA-MB-231 cells incubated for 48 hrs by crystal violet staining based transwell assay; assay type: functional; settings: dose 1.25-10 µM
[4] = tested on: Rho-associated protein kinase 2 (Homo sapiens), O75116 [K121A]; assay: Binding affinity to N-terminal His10-StrepII tagged human ROCK2 K121A mutant catalytic domain (1 to 553 residues) expressed in Sf9 insect cells assessed as change in melting temperature at 50 uM by SYPRO orange dye based thermal shift assay
[5] = target: High affinity nerve growth factor receptor (Homo sapiens) (UniProt P04629); assay: Inhibition of human recombinant TRKA at 125 nM
[6] = target: T1, Rho-associated protein kinase 2 (Homo sapiens, UniProt O75116); assay: Inhibition of N-terminal His10-StrepII tagged human ROCK2 catalytic domain (1 to 553 residues) expressed in Sf9 insect cells by HTRF assay
[7] = Volume of distribution at steady state in ICR mouse at 15 mg/kg, iv administered as single dose and measured for 8 hrs by LC-MS/MS analysis; assay type: ADME, organism-based; settings: in vivo, read-out: Vdss
[8] = MRT (0 to t) in ICR mouse at 15 mg/kg, iv administered as single dose and measured for 8 hrs by LC-MS/MS analysis; assay type: ADME, organism-based; settings: in vivo
MDA-MB-231 [9] = assay: Antiproliferative activity against human MDA-MB-231 cells assessed as suppression of cell growth incubated for 72 hrs by SRB assay; assay type: functional, cell-based; settings: MDA-MB-231, 72 h
[10] = AUC (0 to t) in ICR mouse at 15 mg/kg, iv administered as single dose and measured for 8 hrs by LC-MS/MS analysis; assay type: ADME, organism-based; design: time 8 hrs, dose 15 mg/kg, route iv; settings: in vivo
[11] = target: Serine/threonine-protein kinase pim-1 (Homo sapiens, UniProt P11309); assay: Inhibition of PIM1 (unknown origin)
SK-OV-3 [12] = assay: Inhibition of cell invasion in human SK-OV-3 cells at 1.25 to 10 uM incubated for 48 hrs by crystal violet staining based transwell assay; assay type: functional; settings: dose 1.25-10 µM
[13] = target: Signal transducer and activator of transcription 3 (Homo sapiens) (UniProt P40763); assay: Inhibition of STAT3 activation in human MDA-MB-231 cells assessed as reduction in phosphorylated STAT3 nuclear translocation at 5 uM incubated for 24 hrs by immunofluorescence analysis; assay type: cell-based
MDA-MB-231 [14] = assay: Downregulation of phosphorylated STAT1 protein expression in human MDA-MB-231 cells at 0.5 uM incubated for 24 hrs by Western blot analysis; assay type: functional, cell-based
[15] = target: Inhibitor of nuclear factor kappa-B kinase subunit beta (Homo sapiens, UniProt O14920); assay: Inhibition of IKKbeta (unknown origin)
[16] = target: Signal transducer and activator of transcription 3 (Homo sapiens) (UniProt P40763); assay: Inhibition of STAT3 transcriptional activity in human MDA-MB-231 cells assessed as reduction in TWIST1 mRNA level at 5 uM incubated for 24 hrs by qRT-PCR analysis; assay type: cell-based
MDA-MB-231 [17] = assay: Antimetastatic activity in human MDA-MB-231 cells assessed as increase in nuclear scales at 5 uM incubated for 24 hrs by FITC-conjugated phalloidin staining based confocal microscopic analysis; assay type: functional, cell-based
[18] = target: Rho-associated protein kinase 1 (Homo sapiens, UniProt Q13464); assay: Inhibition of ROCK1 (unknown origin)
[19] = tested on: Rho-associated protein kinase 2 (Homo sapiens), O75116 [M87A]; assay: Binding affinity to N-terminal His10-StrepII tagged human ROCK2 M87A mutant catalytic domain (1 to 553 residues) expressed in Sf9 insect cells assessed as change in melting temperature at 50 uM by SYPRO orange dye based thermal shift assay
[20] = target: Mitogen-activated protein kinase kinase kinase 5 (Homo sapiens, UniProt Q99683); assay: Inhibition of ASK1 (unknown origin)
[21] = AUC (0 to infinity) in ICR mouse at 15 mg/kg, iv administered as single dose and measured for 8 hrs by LC-MS/MS analysis; assay type: ADME, organism-based; design: time 8 hrs, dose 15 mg/kg, route iv; settings: in vivo
SK-OV-3 [22] = assay: Antiproliferative activity against human SK-OV-3 cells assessed as suppression of cell growth incubated for 72 hrs by SRB assay; assay type: functional, cell-based; settings: SK-OV-3, 72 h
[23] = Selectivity index, ratio of IC50 for PKCdelta (unknown origin) to IC50 for N-terminal His10-StrepII tagged human ROCK2 catalytic domain (1 to 553 residues) expressed in Sf9 insect cells
MDA-MB-231 [24] = assay: Inhibition of IL-6 stimulated phosphorylated STAT3 at Y705 residue expression in human MDA-MB-231 cells at 5 uM incubated for 24 hrs by Western blot analysis; assay type: functional, cell-based
[25] = target: Protein kinase C delta type (Homo sapiens, UniProt Q05655); assay: Inhibition of PKCdelta (unknown origin)
MDA-MB-231 [26] = assay: Antimetastatic activity against human MDA-MB-231 cells harboring Luc-mcherry xenografted in BALB/c nude mouse at 15 mg/kg, iv administered once a day for 45 days and measured on day 19,30 and 45 by bioluminescence imaging; assay type: functional, organism-based; settings: time 45.0 day
[27] = Oral bioavailability in ICR mouse at 20 mg/kg administered as single dose and measured for 8 hrs by LC-MS/MS analysis; assay type: ADME, organism-based; settings: in vivo
MDA-MB-231 [28] = assay: Downregulation of phosphorylated STAT2 protein expression in human MDA-MB-231 cells at 0.5 uM incubated for 24 hrs by Western blot analysis; assay type: functional, cell-based
[29] = target: T1, Rho-associated protein kinase 2; assay: Binding affinity to ROCK2 in human MDA-MB- 231 cells assessed as stabilization at 100 uM and 52 to 61 degreeC incubated for 5 mins by CETSA; assay type: cell-based
MDA-MB-231 [30] = assay: Antimetastatic activity in human MDA-MB-231 cells assessed as appearance of disordered and sparse actin filament at 5 uM incubated for 24 hrs by SEM analysis; assay type: functional, cell-based
SK-OV-3 [31] = assay: Inhibition of cell migration in human SK-OV-3 cells at 1.25 to 10 uM incubated for 48 hrs by scratch wound healing assay; assay type: functional, cell-based; settings: dose 1.25-10 µM
[32] = Cmax in ICR mouse at 15 mg/kg, iv administered as single dose and measured for 8 hrs by LC-MS/MS analysis; assay type: ADME, organism-based; design: time 8 hrs, dose 15 mg/kg, route iv; settings: in vivo
[33] = target: 3-phosphoinositide-dependent protein kinase 1 (Homo sapiens) (UniProt O15530); assay: Inhibition of human recombinant PDK1 at 125 nM
[34] = target: Ribosomal protein S6 kinase alpha-6 (Homo sapiens) (UniProt Q9UK32); assay: Inhibition of human recombinant RSK4 at 125 nM
[35] = Volume of distribution at terminal state in ICR mouse at 15 mg/kg, iv administered as single dose and measured for 8 hrs by LC-MS/MS analysis; assay type: ADME, organism-based; settings: in vivo, read-out: Vz
[36] = target: Signal transducer and activator of transcription 3 (Homo sapiens) (UniProt P40763); assay: Inhibition of STAT3 activation in human MDA-MB-231 cells assessed as reduction in STAT3 phosphorylation at Y705 residue at 1.25 to 10 uM incubated for 24 hrs by Western blot analysis; assay type: cell-based; settings: dose 1.25-10 µM

Sequence of Signal transducer and activator of transcription 3 (Homo sapiens) (P40763 whole entry): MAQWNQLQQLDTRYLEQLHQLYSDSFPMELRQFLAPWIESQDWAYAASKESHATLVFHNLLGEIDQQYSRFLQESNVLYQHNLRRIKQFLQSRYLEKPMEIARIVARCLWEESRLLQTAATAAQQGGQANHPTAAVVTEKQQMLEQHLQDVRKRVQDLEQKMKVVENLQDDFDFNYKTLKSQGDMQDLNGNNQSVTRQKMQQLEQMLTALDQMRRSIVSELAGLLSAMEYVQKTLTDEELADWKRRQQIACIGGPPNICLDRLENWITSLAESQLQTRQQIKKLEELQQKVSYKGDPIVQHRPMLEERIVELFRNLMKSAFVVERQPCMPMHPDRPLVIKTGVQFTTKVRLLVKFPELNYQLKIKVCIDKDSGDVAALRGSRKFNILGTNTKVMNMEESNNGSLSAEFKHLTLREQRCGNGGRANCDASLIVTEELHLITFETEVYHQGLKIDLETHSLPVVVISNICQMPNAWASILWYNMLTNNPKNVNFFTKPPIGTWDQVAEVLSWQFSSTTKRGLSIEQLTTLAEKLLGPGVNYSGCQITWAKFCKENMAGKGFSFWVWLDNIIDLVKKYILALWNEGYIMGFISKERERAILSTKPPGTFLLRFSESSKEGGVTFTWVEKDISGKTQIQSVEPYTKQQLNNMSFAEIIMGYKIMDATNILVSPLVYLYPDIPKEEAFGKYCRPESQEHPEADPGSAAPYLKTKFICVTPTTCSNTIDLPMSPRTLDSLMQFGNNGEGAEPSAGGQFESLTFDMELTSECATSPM
Sequence of 3-phosphoinositide-dependent protein kinase 1 (Homo sapiens) (O15530 whole entry, looked up): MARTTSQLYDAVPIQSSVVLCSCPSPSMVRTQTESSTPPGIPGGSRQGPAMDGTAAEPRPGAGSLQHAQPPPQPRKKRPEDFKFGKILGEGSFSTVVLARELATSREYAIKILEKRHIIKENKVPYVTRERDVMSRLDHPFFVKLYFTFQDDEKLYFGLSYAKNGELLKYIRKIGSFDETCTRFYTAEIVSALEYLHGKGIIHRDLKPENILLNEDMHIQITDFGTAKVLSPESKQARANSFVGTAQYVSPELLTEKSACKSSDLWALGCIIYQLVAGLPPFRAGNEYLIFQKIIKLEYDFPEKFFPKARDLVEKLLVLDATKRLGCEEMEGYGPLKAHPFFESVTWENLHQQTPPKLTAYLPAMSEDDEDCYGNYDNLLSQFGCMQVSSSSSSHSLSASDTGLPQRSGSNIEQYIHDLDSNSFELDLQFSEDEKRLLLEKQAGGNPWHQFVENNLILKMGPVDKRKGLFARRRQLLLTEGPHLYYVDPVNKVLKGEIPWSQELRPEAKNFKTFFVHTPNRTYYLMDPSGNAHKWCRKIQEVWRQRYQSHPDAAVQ
Sequence of Rho-associated protein kinase 2 (Homo sapiens), O75116 [M87A] (O75116 whole entry M87A, the tested form may be a part): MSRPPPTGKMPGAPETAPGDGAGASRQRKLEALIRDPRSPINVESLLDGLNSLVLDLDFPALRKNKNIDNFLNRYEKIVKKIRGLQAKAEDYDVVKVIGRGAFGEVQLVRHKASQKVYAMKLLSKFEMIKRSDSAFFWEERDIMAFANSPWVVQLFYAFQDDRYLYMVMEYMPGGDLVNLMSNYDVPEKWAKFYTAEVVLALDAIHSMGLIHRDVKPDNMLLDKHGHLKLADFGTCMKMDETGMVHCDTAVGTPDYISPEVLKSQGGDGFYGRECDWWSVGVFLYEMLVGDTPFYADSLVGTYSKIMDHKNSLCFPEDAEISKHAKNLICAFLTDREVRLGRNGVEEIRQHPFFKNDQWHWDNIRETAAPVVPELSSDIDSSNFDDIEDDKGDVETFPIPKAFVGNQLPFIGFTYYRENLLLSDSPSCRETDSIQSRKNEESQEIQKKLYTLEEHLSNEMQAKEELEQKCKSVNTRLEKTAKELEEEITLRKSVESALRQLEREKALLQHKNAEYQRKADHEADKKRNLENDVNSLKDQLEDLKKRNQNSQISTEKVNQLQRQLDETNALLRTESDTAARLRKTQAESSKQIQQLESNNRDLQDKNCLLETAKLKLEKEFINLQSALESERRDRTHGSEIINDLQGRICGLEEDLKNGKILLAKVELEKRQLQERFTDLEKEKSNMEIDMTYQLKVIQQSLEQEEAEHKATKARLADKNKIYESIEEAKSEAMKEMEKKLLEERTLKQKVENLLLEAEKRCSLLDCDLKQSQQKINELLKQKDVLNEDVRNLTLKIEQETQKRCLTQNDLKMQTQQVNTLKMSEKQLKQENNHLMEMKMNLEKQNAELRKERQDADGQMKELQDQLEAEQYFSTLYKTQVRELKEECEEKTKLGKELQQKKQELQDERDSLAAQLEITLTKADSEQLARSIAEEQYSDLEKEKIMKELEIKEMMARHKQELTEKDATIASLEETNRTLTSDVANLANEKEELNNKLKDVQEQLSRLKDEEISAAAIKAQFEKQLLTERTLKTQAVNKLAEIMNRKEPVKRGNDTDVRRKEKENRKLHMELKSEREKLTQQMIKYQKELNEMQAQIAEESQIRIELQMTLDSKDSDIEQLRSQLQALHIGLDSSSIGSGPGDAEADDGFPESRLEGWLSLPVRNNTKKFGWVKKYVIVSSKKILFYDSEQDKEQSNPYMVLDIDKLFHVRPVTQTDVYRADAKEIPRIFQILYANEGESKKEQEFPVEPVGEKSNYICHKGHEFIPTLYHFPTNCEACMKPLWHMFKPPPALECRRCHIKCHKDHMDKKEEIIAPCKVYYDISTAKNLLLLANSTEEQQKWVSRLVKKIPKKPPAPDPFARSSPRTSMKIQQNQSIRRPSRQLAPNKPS
Sequence of Protein kinase C delta type (Q05655 whole entry): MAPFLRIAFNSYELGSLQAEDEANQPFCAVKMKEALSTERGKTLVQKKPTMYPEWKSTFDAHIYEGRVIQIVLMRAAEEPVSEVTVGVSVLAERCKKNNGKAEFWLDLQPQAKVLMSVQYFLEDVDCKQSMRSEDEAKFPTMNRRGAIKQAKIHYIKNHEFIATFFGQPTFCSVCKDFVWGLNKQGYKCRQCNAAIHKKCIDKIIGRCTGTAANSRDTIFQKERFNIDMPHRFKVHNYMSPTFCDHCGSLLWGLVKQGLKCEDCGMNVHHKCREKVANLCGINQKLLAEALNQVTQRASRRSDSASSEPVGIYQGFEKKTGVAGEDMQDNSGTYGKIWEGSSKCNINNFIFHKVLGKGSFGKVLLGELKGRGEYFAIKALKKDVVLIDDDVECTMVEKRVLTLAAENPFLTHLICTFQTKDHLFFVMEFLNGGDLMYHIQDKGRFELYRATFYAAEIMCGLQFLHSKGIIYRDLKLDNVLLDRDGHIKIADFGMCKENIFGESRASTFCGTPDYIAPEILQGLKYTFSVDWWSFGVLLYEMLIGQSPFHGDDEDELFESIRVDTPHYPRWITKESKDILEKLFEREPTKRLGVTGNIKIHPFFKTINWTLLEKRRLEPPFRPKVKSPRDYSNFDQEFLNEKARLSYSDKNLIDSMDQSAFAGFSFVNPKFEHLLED
Sequence of Rho-associated protein kinase 2 (Homo sapiens), O75116 [K121A] (O75116 whole entry K121A, the tested form may be a part): as the sequence (O75116 whole entry M87A, the tested form may be a part) above, with A87M, K121A counted along it
Sequence of Serine/threonine-protein kinase pim-1 (P11309 whole entry): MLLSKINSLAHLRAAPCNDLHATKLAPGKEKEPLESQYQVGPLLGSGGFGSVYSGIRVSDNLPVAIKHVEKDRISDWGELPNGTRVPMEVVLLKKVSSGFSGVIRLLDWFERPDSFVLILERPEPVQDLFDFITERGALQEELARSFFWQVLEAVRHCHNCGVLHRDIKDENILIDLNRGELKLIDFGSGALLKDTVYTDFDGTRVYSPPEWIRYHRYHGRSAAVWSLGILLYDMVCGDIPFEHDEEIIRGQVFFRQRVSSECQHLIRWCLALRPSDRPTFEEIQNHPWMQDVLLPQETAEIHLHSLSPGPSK

O=C1NCc2c1c1c3cc(O)ccc3[nH]c1c1[nH]c3ccccc3c21
inhibition [1]: Active
inhibition [2]: Active
inhibition (MDA-MB-231 [3]): Dose-Dependent Effect
Activity [4]: inactive
inhibition [5]: Active
IC50 [6]: 6 nM
Vd [7]: 0.32 L/kg
MRT last at 8 h [8]: 10.8 min
IC50 (MDA-MB-231 [9]): 7190 nM
AUC(0-t) at 8 h [10]: 6240 ng·h/mL
IC50 [11]: 308 nM
inhibition (SK-OV-3 [12]): Active
inhibition [13]: Active
Activity (MDA-MB-231 [14]): Active
IC50 [15]: 139 nM
inhibition [16]: Active
Activity (MDA-MB-231 [17]): Active
IC50 [18]: 923 nM
Activity [19]: inactive
IC50 [20]: 944 nM
AUC(0-inf) [21]: 6250 ng·h/mL
IC50 (SK-OV-3 [22]): 4440 nM
Ratio IC50 [23]: > 10
inhibition (MDA-MB-231 [24]): Active
IC50 [25]: 60.7 nM
Activity (MDA-MB-231 [26]): Active
bioavailability [27]: < 1%
Activity (MDA-MB-231 [28]): Active
Activity [29]: Active
Activity (MDA-MB-231 [30]): Active
inhibition (SK-OV-3 [31]): Active
Cmax [32]: 21600 ng/mL
inhibition [33]: Active
inhibition [34]: Active
Vd [35]: 4.87 L/kg
inhibition [36]: Active
